{"source": "patent US6548450B1", "about": "“Tetrazolinone derivatives” (Nihon Bayer Agrochem, K.K., priority 1999, dated 2003)", "test_system": "paddy field weeds", "experiment": "Test for herbicidal effect against paddy field weeds", "format": "in vivo", "settings": "application rate of 0.5 kg/ha, applied to the surface of the water 5 days after rice transplantation, examined after 3 weeks, greenhouse pot", "protocol": "Test for Herbicidal Effect Against Paddy Field Weeds\nPreparation of formulation of the active compound\nCarrier: Acetone 5 parts by weight\nEmulsifier: Benzyloxypolyglycolether 1 part by weight\nA formulation of the active compound is obtained as an emulsion by mixing 1 part by weight of the active compound with the above-mentioned amount of carrier and emulsifier. A prescribed amount of said formulation is diluted with water to prepare a formulation for testing.\nIn a greenhouse 3 seedlings of paddy rice (cultivar: Nipponbare) of 2.5 leafstage (15 cm tall) were transplanted in a 500 cm^2 pot filled with paddy field soil. Then seeds of barnyard grass, smallflower, bulrush, monochoria and broad-leaved weeds (common false pimpernel, Indian toothcup, long stemmed water wort, Ammannia multiflora Roxb., Dopatrium junceum Hammilt etc.) were sown and water was poured on the soil to a depth of about 2-3 cm.\n5 days after the rice transplantation a formulation of each active compound prepared according to the aforementioned preparation method was applied to the surface of the water. A water depth of 3 cm was maintained. The herbicidal effect was examined after 3 weeks from the treatment. The herbicidal effect was rated as 100% in the case of complete death and as 0% in the case of no herbicidal effect.", "data": [{"smiles": "CC(C)N(C(=O)n1nnn([C@@H](C)c2ccccc2)c1=O)c1ccccc1", "note": "[compound 3, 1-((S)-α-methylbenzyl)-4-(N-isopropyl-N-phenylcarbamoyl)-5(4H)-tetrazolinone]", "values": [{"measurement": "herbicidal effect against paddy field weeds", "value": "sufficient herbicidal effect"}]}]}
